Converted amounts (≈) assume the structure as drawn. No end group written: not given here.
Experiments:
[1] = tested on: Pseudomonas aeruginosa ATCC 27853; experiment: Antimicrobial assay I, modified protocol (tryptic soy broth), MBC; details: minimum bactericidal concentration, Table 4
[2] = tested on: Candida albicans ATCC 10231; experiment: Antimicrobial assay I, modified protocol (tryptic soy broth), MFC; details: minimum fungicidal concentration, Table 4
Experimental: The preparation of all media, stock solutions, and dilutions took place in a laminar flow hood to prevent contamination. Bacterial cells were freshly grown on antibiotic medium 2 agar slants (pH 7.0 at 25° C.). Bacteria were suspended and diluted in antibiotic medium 3 to about 10^4 cfu/ml and used as the inoculum. Sample solutions (100 μl/well) were added to plates according to the plate layout. Inoculum (100 μl/well) was added to achieve a final concentration of 5×10^3 cfu/ml. Negative controls received 100 μl saline and 100 μl growth medium. Positive controls received 100 μl saline and 100 μl inoculum. Bacterial plates were incubated at 37° C. for 24 hours.
However, the data for Table 4 were obtained with a modified protocol wherein the medium was tryptic soy broth, inocolum strength was approximately 10^4 CFU per ml, and values determined were minimum bactericidal concentrations (MBC) or minimum fungicidal concentrations (MFC).
MBC or MFC values are in μg/mL. E. coli is Escherichia coli ATCC accession number 25922; P. aerug is Pseudomonas aeruginosa ATCC accession number 27853, S. aur. is Stapholococcus aureus ATCC accession number 25923; Candida is Candida albicans ATCC accession number 10231.

[3] = tested on: Stapholococcus aureus ATCC 25923; experiment: Antimicrobial assay I, modified protocol (tryptic soy broth), MBC; details: minimum bactericidal concentration, Table 4
[4] = tested on: Escherichia coli ATCC 25922; experiment: as above; details: minimum bactericidal concentration, Table 4

Row | Compound | MBC P. aerug A.27853 [1] | MFC Candida A.10231 [2] | MBC S. aur A.25923 [3] | MBC E. coli A.25922 [4]
1 | CC(C)C[C@H](NC(=O)CNC(=O)[C@H](CCCCN)NC(=O)[C@H](CCCCN)NC(=O)[C@H](C)NC(=O)[C@H](CC(C)C)NC(=O)[C@H](CCCCN)NC(=O)[C@H](C)NC(=O)[C@H](CC(C)C)NC(=O)[C@H](CC(C)C)NC(=O)[C@H](CCCCN)NC(=O)[C@H](C)NC(=O)[C@@H](N)Cc1ccccc1)C(N)=O [compound 152] | 150 µg/mL (≈ 107 µM) | 50 µg/mL (≈ 35.7 µM) | >250 µg/mL | 150 µg/mL (≈ 107 µM)
2 | FALKALKK-NH2 [compound 145] | INACT | 100 µg/mL | INACT | INACT
3 | KWKLAKKALALL-NH2 [compound 142] | INACT | INACT | INACT | INACT
4 | CC(C)C[C@H](NC(=O)[C@H](CCCCN)NC(=O)[C@H](Cc1c[nH]c2ccccc12)NC(=O)[C@H](CCCCN)NC(=O)[C@H](CCCCN)NC(=O)[C@H](C)NC(=O)[C@H](CC(C)C)NC(=O)[C@H](CCCCN)NC(=O)[C@H](CCCCN)NC(=O)[C@H](C)NC(=O)[C@H](CC(C)C)NC(=O)[C@H](CCCCN)NC(=O)[C@H](CCCCN)NC(=O)[C@H](CC(C)C)NC(=O)[C@H](CCCCN)NC(=O)[C@H](CCCCN)NC(=O)[C@H](C)NC(=O)[C@H](CC(C)C)NC(=O)[C@H](CCCCN)NC(=O)[C@H](CCCCN)NC(=O)[C@H](C)NC(=O)[C@@H](N)Cc1ccccc1)C(=O)O [compound 72] | 40 µg/mL (≈ 15.3 µM) | >50 µg/mL | >50 µg/mL | >50 µg/mL
5 | CC(C)C[C@H](NC(=O)[C@H](CC(C)C)NC(=O)[C@H](CCCCN)NC(=O)[C@H](CCCCN)NC(=O)[C@H](C)NC(=O)[C@H](C)NC(=O)[C@H](CC(C)C)NC(=O)[C@H](CCCCN)NC(=O)[C@H](CC(C)C)NC(=O)[C@H](CC(C)C)NC(=O)[C@H](CCCCN)NC(=O)[C@H](C)NC(=O)[C@@H](N)Cc1ccccc1)C(N)=O [compound 56] | 10 µg/mL (≈ 6.87 µM) | 30 µg/mL (≈ 20.6 µM) | 55 µg/mL (≈ 37.8 µM) | 50 µg/mL (≈ 34.3 µM)
6 | FAKLF-NH2 [compound 129] | INACT | INACT | INACT | INACT
7 | CC(C)C[C@H](NC(=O)[C@H](CCCCN)NC(=O)[C@H](CCCCN)NC(=O)[C@H](Cc1c[nH]c2ccccc12)NC(=O)[C@@H](N)CCCCN)C(=O)N[C@@H](C)C(=O)N[C@@H](CCCCN)C(=O)N[C@@H](CCCCN)C(=O)N[C@@H](Cc1c[nH]c2ccccc12)C(=O)O [compound 162] | >250 µg/mL | 100 µg/mL (≈ 82.3 µM) | >250 µg/mL | 50 µg/mL (≈ 41.1 µM)
8 | CC(C)C[C@H](NC(=O)[C@H](C)NC(=O)[C@H](CC(C)C)NC(=O)[C@H](C)NC(=O)[C@H](CC(C)C)NC(=O)[C@H](CCCCN)NC(=O)[C@H](C)NC(=O)[C@H](CC(C)C)NC(=O)[C@H](CCCCN)NC(=O)[C@H](CCCCN)NC(=O)[C@H](C)NC(=O)[C@H](CC(C)C)NC(=O)[C@H](CCCCN)NC(=O)[C@H](CCCCN)NC(=O)[C@H](CC(C)C)NC(=O)[C@H](CCCCN)NC(=O)[C@H](CCCCN)NC(=O)[C@H](C)NC(=O)[C@H](CC(C)C)NC(=O)[C@H](CCCCN)NC(=O)[C@H](CCCCN)NC(=O)[C@H](C)NC(=O)[C@@H](N)Cc1ccccc1)C(N)=O [compound 11] | 25 µg/mL (≈ 9.86 µM) | >50 µg/mL | 25 µg/mL (≈ 9.86 µM) | 40 µg/mL (≈ 15.8 µM)
9 | CC(C)C[C@H](NC(=O)[C@H](CCCCN)NC(=O)[C@H](CC(C)C)NC(=O)[C@H](CCCCN)NC(=O)[C@H](C)NC(=O)[C@H](CC(C)C)NC(=O)[C@H](CCCCN)NC(=O)[C@H](C)NC(=O)[C@H](CC(C)C)NC(=O)[C@H](CC(C)C)NC(=O)[C@H](CCCCN)NC(=O)[C@H](C)NC(=O)[C@@H](N)Cc1ccccc1)C(N)=O [compound 66] | 50 µg/mL (≈ 34.3 µM) | 40 µg/mL (≈ 27.5 µM) | 30 µg/mL (≈ 20.6 µM) | 40 µg/mL (≈ 27.5 µM)
10 | FAKLLAKFLKKAL-NH2 [compound 113] | INACT | 40 µg/mL | INACT | INACT
11 | KWKLF-NH2 [compound 131] | INACT | INACT | INACT | INACT
12 | CC(C)C[C@H](NC(=O)[C@H](CCCCN)NC(=O)[C@H](CCCCN)NC(=O)[C@H](C)NC(=O)[C@H](CC(C)C)NC(=O)[C@H](CCCCN)NC(=O)[C@H](CCCCN)NC(=O)[C@H](CC(C)C)NC(=O)[C@H](CCCCN)NC(=O)[C@H](CCCCN)NC(=O)[C@H](C)NC(=O)[C@@H](N)Cc1ccccc1)C(N)=O [compound 79] | >50 µg/mL | >50 µg/mL | >50 µg/mL | >50 µg/mL
13 | CC(C)C[C@H](NC(=O)[C@H](CC(C)C)NC(=O)[C@H](CCCCN)NC(=O)[C@H](CC(C)C)NC(=O)[C@H](CC(C)C)NC(=O)[C@H](CCCCN)NC(=O)[C@H](CCCCN)NC(=O)[C@H](Cc1ccc(O)cc1)NC(=O)[C@H](CC(C)C)NC(=O)[C@H](CCCCN)NC(=O)[C@H](CC(C)C)NC(=O)[C@H](CC(C)C)NC(=O)[C@H](CC(C)C)NC(=O)[C@H](CCCCN)NC(=O)[C@H](CC(C)C)NC(=O)[C@H](CC(C)C)NC(=O)[C@@H](N)CCCCN)C(=O)O [compound 156] | >250 µg/mL | >250 µg/mL | >250 µg/mL | 100 µg/mL (≈ 48 µM)
14 | FAKLFAKLAKKFAL-NH2 [compound 121] | INACT | 50 µg/mL | INACT | INACT
15 | CC(C)C[C@H](NC(=O)[C@H](C)NC(=O)[C@H](CCCCN)NC(=O)[C@H](C)NC(=O)[C@H](CC(C)C)NC(=O)[C@H](CCCCN)NC(=O)[C@H](C)NC(=O)[C@H](CC(C)C)NC(=O)[C@H](CCCCN)NC(=O)[C@H](C)NC(=O)[C@H](CC(C)C)NC(=O)[C@H](CCCCN)NC(=O)[C@H](CCCCN)NC(=O)[C@H](C)NC(=O)[C@H](CC(C)C)NC(=O)[C@@H](N)CCCCN)C(=O)O [compound 160] | >250 µg/mL | >250 µg/mL | >250 µg/mL | >250 µg/mL
16 | CC[C@H](C)[C@H](NC(=O)[C@H](CCCCN)NC(=O)[C@H](CCCCN)NC(=O)[C@H](Cc1ccccc1)NC(=O)[C@H](CC(C)C)NC(=O)[C@H](CCCCN)NC(=O)[C@H](Cc1c[nH]c2ccccc12)NC(=O)[C@@H](N)CCCCN)C(=O)NCC(=O)N[C@@H](C)C(=O)N[C@H](C(=O)N[C@@H](CC(C)C)C(=O)N[C@@H](CCCCN)C(=O)N[C@H](C(=O)N[C@@H](CC(C)C)C(N)=O)C(C)C)C(C)C [compound 53] | 15 µg/mL (≈ 8.47 µM) | 30 µg/mL (≈ 16.9 µM) | 10 µg/mL (≈ 5.65 µM) | 15 µg/mL (≈ 8.47 µM)
17 | FAKGVGKVGKKAL-NH2 [compound 137] | INACT | INACT | INACT | INACT
18 | FAKIIAKIAKIAKKIL-NH2 [compound 139] | INACT | INACT | INACT | INACT
19 | FAKAIAKIAFGKGIGKVGKKLL-NH2 [compound 134] | INACT | INACT | INACT | INACT
20 | FGKGIGKVGKKLL-NH2 [compound 132] | INACT | INACT | INACT | INACT
21 | CC(C)C[C@H](NC(=O)[C@H](C)NC(=O)[C@H](CCCCN)NC(=O)[C@H](CCCCN)NC(=O)[C@H](CC(C)C)NC(=O)[C@H](C)NC(=O)[C@H](CCCCN)NC(=O)[C@H](C)NC(=O)[C@H](CC(C)C)NC(=O)[C@H](C)NC(=O)[C@@H](N)Cc1ccccc1)C(N)=O [compound 166] | >250 µg/mL | >250 µg/mL | >250 µg/mL | >250 µg/mL

Reference: US20050209157A1, “Short bioactive peptides and methods for their use” (priority 2001, published 2005)
